Consider seven compounds from paper PMC4459787 (Science (New York, N.Y.), 2014).

Data set [1] relates to U2OS cells. Put plainly: Cell entry and nucleolar localisation by HA immunostaining in U2OS cells. The conditions noted are these: 10 μM, 30 min, fixed, HA antibody staining. In kind it is cell-based.
For the next data set, the system named is human astrocytes. Put plainly: Nucleolar localisation by HA immunostaining in human astrocytes. Particulars: U2OS cancer cells and human astrocytes, HA antibody and Fibrillarin staining. It counts as cell-based.
A further data set has as its system EAAT2 transcript. Put plainly: RT-PCR of EAAT2 transcript splicing in human astrocytes. It counts as cell-based. The conditions noted are these: for aberrant EAAT2 splicing: human astrocytes exposed to toxin until clear evidence of toxicity, PCR, fig. S6B.
Data set [2] has as its system U2OS cells. It counts as cell-based.
The format of data set [3] is in vitro ADME. Particulars: cells or culture medium.
Data set [4] deals with ribosomal RNA (45S precursor, 18S, 5.8S, 28S). Put plainly: qPCR of rRNA synthesis and processing in peptide-treated human astrocytes. It counts as cell-based. The conditions noted are these: 12 hours. In general terms: Real-time PCR tracks product formation cycle by cycle.
Data set [5] relates to pre-mRNA splicing (RAN GTPase, PTX3, NACA, GADD45A). It counts as cell-based. Particulars: human astrocytes.
In data set [6] the target is mCherry:hnRNPA2 hydrogel droplets (low complexity domain of hnRNPA2) (Homo sapiens, UniProt P22626). Put plainly: Binding to mCherry:hnRNPA2 hydrogel droplets. The conditions noted are these: GFP signal at the periphery of mCherry:hnRNPA2 hydrogel droplets; overnight incubation at 4°C.
Sequence of mCherry:hnRNPA2 hydrogel droplets (low complexity domain of hnRNPA2) (P22626 193-353 limits assumed, one chain of several): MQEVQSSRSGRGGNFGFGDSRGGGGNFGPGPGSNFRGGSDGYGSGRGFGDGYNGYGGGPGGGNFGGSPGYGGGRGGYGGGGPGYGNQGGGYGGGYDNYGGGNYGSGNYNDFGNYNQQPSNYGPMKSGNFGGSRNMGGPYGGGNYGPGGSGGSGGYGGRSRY

Ends that are not written are not given here.

Regarding `CC(C)[C@H](NC(=O)[C@H](CC(=O)O)NC(=O)[C@H](Cc1ccc(O)cc1)NC(=O)[C@@H]1CCCN1C(=O)[C@H](Cc1ccc(O)cc1)NC(=O)[C@H](CCCNC(=N)N)NC(=O)CNC(=O)[C@H](CCCNC(=N)N)NC(=O)CNC(=O)[C@H](CCCNC(=N)N)NC(=O)CNC(=O)[C@H](CCCNC(=N)N)NC(=O)CNC(=O)[C@H](CCCNC(=N)N)NC(=O)CNC(=O)[C@H](CCCNC(=N)N)NC(=O)CNC(=O)[C@H](CCCNC(=N)N)NC(=O)CNC(=O)[C@H](CCCNC(=N)N)NC(=O)CNC(=O)[C@H](CCCNC(=N)N)NC(=O)CNC(=O)[C@H](CCCNC(=N)N)NC(=O)CNC(=O)[C@H](CCCNC(=N)N)NC(=O)CNC(=O)[C@H](CCCNC(=N)N)NC(=O)CNC(=O)[C@H](CCCNC(=N)N)NC(=O)CNC(=O)[C@H](CCCNC(=N)N)NC(=O)CNC(=O)[C@H](CCCNC(=N)N)NC(=O)CNC(=O)[C@H](CCCNC(=N)N)NC(=O)CNC(=O)[C@H](CCCNC(=N)N)NC(=O)CNC(=O)[C@H](CCCNC(=N)N)NC(=O)CNC(=O)[C@H](CCCNC(=N)N)NC(=O)CNC(=O)[C@H](CCCNC(=N)N)NC(=O)CN)C(=O)N1CCC[C@H]1C(=O)N[C@@H](CC(=O)O)C(=O)N[C@@H](Cc1ccc(O)cc1)C(=O)N[C@@H](C)C(=O)O` [GR20], the “cell entry and localisation” value with U2OS cells [1] was “entered cells, migrated to the nucleus and bound to nucleoli”. For the same compound, the nucleolar association entry with human astrocytes is listed as “associated prominently with nucleoli”.
Take `C=C1[C@@H](C)[C@H]2[C@H](Cc3ccccc3)NC(=O)[C@]23[C@H](OC(C)=O)/C=C/[C@@](C)(O)C(=O)[C@@H](C)C/C=C/[C@H]3[C@@H]1O` [cytochalasin D]: the “aberrant EAAT2 splicing” value with EAAT2 transcript is on record as “None of the four toxins gave evidence of aberrant splicing”.
For `COc1cccc2c1C(=O)c1c(O)c3c(c(O)c1C2=O)C[C@@](O)(C(=O)CO)C[C@@H]3O[C@H]1C[C@H](N)[C@H](O)[C@H](C)O1` [doxorubicin], the “aberrant EAAT2 splicing” value in the data set with EAAT2 transcript is reported as “None of the four toxins gave evidence of aberrant splicing”.
For the compound `CN[C@@H]1C[C@H]2O[C@@](C)([C@@H]1OC)n1c3ccccc3c3c4c(c5c6ccccc6n2c5c31)C(=O)NC4` [staurosporin], the “aberrant EAAT2 splicing” value in the data set with EAAT2 transcript is recorded as “None of the four toxins gave evidence of aberrant splicing”.
Still for that read-out and setting: as for `CC(=O)O[C@H]1C(=O)[C@@]2(C)[C@H]([C@H](OC(=O)c3ccccc3)[C@]3(O)C[C@H](OC(=O)[C@H](O)[C@@H](NC(=O)c4ccccc4)c4ccccc4)C(C)=C1C3(C)C)[C@]1(OC(C)=O)CO[C@@H]1C[C@@H]2O` [taxol], the entry is “None of the four toxins gave evidence of aberrant splicing”.
Consider “PRPRPRPRPRPRPRPRPRPRPRPRPRPRPRPRPRPRPRPRYPYDVPDYA [PR20]”, for which the “time to half-maximal impact on cell viability” value with U2OS cells [2] (10 μM peptide, fig. S4E) is reported as “roughly 36 hours”. The “time to 50% cell death” value in the data set on U2OS cells [2] (30 μM dose of the peptide, fig. S4F) came to 6 h. For the same compound, the cell morphology result in the data set on U2OS cells [2] (U2OS cells, 10 μM, within 24 hours) is “spindle-like phenotype”. Further, the “cell morphology and viability” value in the data set with U2OS cells [2] (U2OS cells, 30 μM, 24 hours) was “almost all cells were detached from the culture substrate and dead”. The half-life (commonly how long it takes for the measured level to halve) in data set [3] is 3 days. In addition, in data set [4] (10 μM, qPCR), the “attenuation of rRNA precursor, 3′ junction of 5.8S rRNA” value is reported as 40%; the “attenuation of rRNA precursor, third probe (5′ end of 5.8S rRNA)” value was “roughly 20%”; the “elevation of rRNA precursor, 5′ transcribed spacer primers” value was 20%; the “immature rRNA, first junctional probe (5′ end of 18S rRNA)” value was “elevation in immature rRNA”. In data set [4] (10 μM, qPCR), the “rRNA precursor, 5′ junction of 28S rRNA” value is “normal precursor levels” and the “rRNA precursor, second junctional probe (3′ end of 18S rRNA)” value is given as “normal levels of rRNA precursor”. Also, in data set [4] (30 μM, qPCR), the “28S rRNA level” value was “Slight reductions” and the “drop of rRNA precursor, 3′ terminus of 5.8S rRNA” value turned out to be 70%. The “reduction of the level of 5.8S rRNA” value in data set [4] (30 μM, qPCR relative to vehicle) is 70%. Moreover, the “cell entry and localisation” value in the data set on U2OS cells [1] is “entered cells, migrated to the nucleus and bound to nucleoli”. Further, the nucleolar association result in the data set with human astrocytes is “associated prominently with nucleoli”. The “aberrant EAAT2 splicing (exon 9-skipped form and intron 7 retention)” value with EAAT2 transcript (human astrocytes, 10 or 15 μM, 36 hours, RT-PCR) is listed as “appeared in a concentration-dependent manner”. Also, in data set [5] (6 hours, RT-PCR), the “splicing of GADD45 mRNA” value is reported as “include the full intronic sequences on both sides of exon 2”, the “splicing of NACA mRNA” value is reported as “contain a different 5′ UTR”, the “splicing of PTX3 mRNA” value was “exon 2-skipping” and the “splicing of RAN GTPase mRNA” value is “exon 2-skipping”. In addition, in data set [5] (RNA-seq, P < 2.2e-16, Kolmogorov–Smirnov test), the “expression of the ribosomal protein gene family” value was “significantly up-regulated”.
For green fluorescent protein [GFP], the “binding to hnRNPA2 hydrogel droplets” value in data set [6] is reported as “did not bind”.
